Results from BindingDB's records for doi:10.1021/jm00051a006 (University of Alberta, 1995).

experiment: Effective concentration in vitro against HIV-1-infected CEM cells relative to uninfected untreated controls

SMILES	EC50
CCO[C@H]1N(C2CC(N=[N+]=[N-])C(CO)O2)C(=O)NC(=O)[C@]1(C)Br (stereo partly specified)	6.75 nM
CO[C@@H]1N(C2CC(N=[N+]=[N-])C(CO)O2)C(=O)NC(=O)[C@@]1(C)Br (stereo partly specified)	280 nM
CC1(Cl)C(=O)NC(=O)N([C@H]2C[C@H](N=[N+]=[N-])[C@@H](CO)O2)C1N=[N+]=[N-] (stereo partly specified)	1490 nM
CCCCCCCCO[C@H]1N(C2CC(N=[N+]=[N-])C(CO)O2)C(=O)NC(=O)[C@]1(C)Br (stereo partly specified)	865 nM
CCO[C@@H]1N(C2CC(N=[N+]=[N-])C(CO)O2)C(=O)NC(=O)[C@@]1(C)Br (stereo partly specified)	23.7 nM
CC1(Br)C(=O)NC(=O)N([C@H]2C[C@H](N=[N+]=[N-])[C@@H](CO)O2)C1N=[N+]=[N-] (stereo partly specified)	200000 nM
CC(C)O[C@H]1N(C2CC(N=[N+]=[N-])C(CO)O2)C(=O)NC(=O)[C@]1(C)Br (stereo partly specified)	5720 nM

Now from value to compound:

EC50	SMILES
5790 nM	CO[C@H]1N([C@H]2C[C@H](N=[N+]=[N-])[C@@H](CO)O2)C(=O)NC(=O)C1(C)Cl (stereo partly specified)
5.15 nM	CO[C@@H]1N(C2CC(N=[N+]=[N-])C(CO)O2)C(=O)NC(=O)[C@@]1(C)I (stereo partly specified)
3.17 nM	CO[C@H]1N(C2CC(N=[N+]=[N-])C(CO)O2)C(=O)NC(=O)[C@]1(C)I (stereo partly specified)
3.27 nM	CO[C@H]1N(C2CC(N=[N+]=[N-])C(CO)O2)C(=O)NC(=O)[C@]1(C)Br (stereo partly specified)
